Reference: patent US20160139152A1, “Biosensor Using Cell That Expresses Chemosensory Receptor That Can Detect Sugar, And Alzheimer's Disease Diagnostic Apparatus Comprising Same” (KYUNGPOOK NATIONAL UNIVERSITY INDUSTRY-ACADEMIC COOPERATION …, priority 2013, published 2016)

Tests used:
S2 cells = experiment: Voltage change of ISFET biosensor (reference unit) with fixed S2 cells or general culture media; format: cell-based, Drosophila; conditions: FIG. 9
Source text: A cell line expressing Gr5a, which is one of drosophila gustatory receptors, was established with Drosophila Expression System (Invitrogen) using Drosophila Schneider 2 (S2) cells that cannot detect sugar (http://tools.invitrogen.com/content/sfs/manuals/des_man.pdf). A high concentration of a polycrystalline silicon thin film was deposited on a p-type silicon substrate through a low pressure chemical vapor deposition (LPCVD) vacuum equipment, and a source electrode and a drain electrode were formed spaced away from each other using lithographic and dry etching processes. An oxide layer was formed of a silicon dioxide (SiO2) layer, a hafnium oxide (HfO2) layer located on the silicon dioxide layer, and an aluminum oxide (Al2O3) layer located on the hafnium oxide layer, on the silicon layer. Rapid thermal treatment (at 850° C. for 30 seconds) was conducted under N2/O2 gas atmosphere, in order to activate the source electrode, the drain electrode, and the oxide layer, successively. After the rapid thermal treatment, a metal electrode was deposited by e-beam deposition. Thereafter, a wall structure was constructed with polydimethylsiloxane (PDMS), and an electrolyte was put into the wall structure, to prepare an ISFET based biosensor. A pair ISFET structure was developed capable of sensing by distinguishing the experimental group from the control group, as shown in FIG. 8. […]

Gr5a = target: T1, Gr5a (Drosophila melanogaster, UniProt Q9W497); experiment: Voltage change of ISFET biosensor (sensing unit) with fixed drosophila cell line expressing Gr5a; format: cell-based; conditions: FIG. 9
T1 construct: After cloning Gr5a cDNA into a pAC vector; expressed in transfected cells
T1 sequence (Q9W497 1-444): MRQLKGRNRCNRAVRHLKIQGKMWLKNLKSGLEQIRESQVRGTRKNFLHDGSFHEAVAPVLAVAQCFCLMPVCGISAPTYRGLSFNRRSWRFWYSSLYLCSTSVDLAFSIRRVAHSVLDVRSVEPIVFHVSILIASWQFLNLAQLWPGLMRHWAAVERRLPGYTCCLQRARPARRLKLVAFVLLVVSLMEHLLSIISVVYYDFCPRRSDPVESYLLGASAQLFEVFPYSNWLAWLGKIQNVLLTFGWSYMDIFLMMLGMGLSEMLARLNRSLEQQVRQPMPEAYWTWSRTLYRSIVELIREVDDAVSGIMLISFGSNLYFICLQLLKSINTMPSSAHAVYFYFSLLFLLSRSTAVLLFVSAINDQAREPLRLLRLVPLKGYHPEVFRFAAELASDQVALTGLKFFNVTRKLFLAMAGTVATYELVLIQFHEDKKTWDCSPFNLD
Description: A cell line expressing Gr5a, which is one of drosophila gustatory receptors, was established with Drosophila Expression System (Invitrogen) using Drosophila Schneider 2 (S2) cells that cannot detect sugar (http://tools.invitrogen.com/content/sfs/manuals/des_man.pdf). After cloning Gr5a cDNA into a pAC vector, the S2 cell line was co-transfected with 2 μg of the cloned plasmid and 200 ng of pCoHygro which is a selection vector resistant to hygromycin, using polyethylenimine (PEI) in a Schneider medium (Invitrogen) containing no serum. A stable cell line expressing Gr5a was established by culturing in a medium containing hygromycin every 4 days, at least 6 times. A high concentration of a polycrystalline silicon thin film was deposited on a p-type silicon substrate through a low pressure chemical vapor deposition (LPCVD) vacuum equipment, and a source electrode and a drain electrode were formed spaced away from each other using lithographic and dry etching processes. An oxide layer was formed of a silicon dioxide (SiO2) layer, a hafnium oxide (HfO2) layer located on the silicon dioxide layer, and an aluminum oxide (Al2O3) layer located on the hafnium oxide layer, on the silicon layer. Rapid thermal treatment (at 850° C. for 30 seconds) was conducted under N2/O2 gas atmosphere, in order to activate the source electrode, the drain electrode, and the oxide layer, successively. […]

change in voltage of the pair ISFET depending on the concentration of trehalose (Gr5a): voltage remarkably increases
Structure (SMILES): OC[C@H]1O[C@H](O[C@H]2O[C@H](CO)[C@@H](O)[C@H](O)[C@H]2O)[C@H](O)[C@@H](O)[C@@H]1O [trehalose]
change in voltage of the pair ISFET depending on the concentration of trehalose (S2 cells): voltage changes little
